The test system of test [1] is yeast. The experiment in a line: Sensitization of yeast to fungicidal agents AmB and Nys. In kind it is cell-based, Saccharomyces cerevisiae. The settings on record: range of 0 to 1% (v/v), no rhomboid protein, one hour.
Test [2] has as its system yeast. The description is as above. In kind it is cell-based, Saccharomyces cerevisiae. The settings on record: for yeast cell survival, fungicide alone: sub-lethal levels (1% AmB, 0.5% Nys), no rhomboid protein; for sensitization of yeast to antifungals AmB and Nys: exogenous protein co-delivered with sub-lethal AmB and Nys, as Example 13. As for the experimental part:
Experiments were conducted to assess the ability of the Arabidopsis At1g74130 proteins or variants to sensitize yeast to the antifungal agents Amphotericin B (AmB) and Nystatin (Nys). Overall, these assays were conducted in a manner similar to that designed for bacteria (Example 9). In addition to the components mixed with the added proteins or variants, the antifungal AmB was also utilized as part of the delivery system. The AmB drug contains small quantities of the detergent deoxycholate, which may also assist in the delivery of proteins into the cell, as well as function as a pore forming agent itself. […] The effective co-delivery sub-lethal concentrations of the two antifungal agents or protein had little or no effect when provided individually. FIGS. 17 and 18 show results of the yeast sensitivity assays for AmB and Nys. […] In FIG. 17, the “Yeast Control” bars represent yeast cells given mock treatments with culture media (YPD) alone, YPD plus 1% AmB, YPD plus 0.5% Nys, and YPD plus 1% AmB and 0.5% Nys, respectively. The “BSA Control” bars represent another set of mock treatments with yeast cells. This set utilized the same set-up as the Yeast Control set but with added control bovine serum albumin proteins (BSA) (dissolved in the elution buffer, the same buffer used for the purification of the recombinant At1g74130 rhomboid proteins or variants). These assays represent another variation of negative controls for rhomboid protein. The “Elution Control” bars represent yeast cells mock treated using the same set-up as in the Yeast Control set but with added elution buffer alone. This variation of control assays was designed to assess for potential toxic impacts when combining elution buffer and the listed drugs, as well any effects originating from components of the elution buffer itself. The composition of the elution buffer is provided above in Example 5. With the exception of Nys, these treatments represent the first step and occur for 45 minutes before the second step when exposure to fungicides takes place. Within each set of bars, where applicable, the second 15-minute step treatment occurred with a sub-lethal dose of Nys. After a total of one hour, the treated yeast cells were plated on non-selective YPD agar plates. Plates were grown 2-3 days at 27-30° C. and assessed for surviving cell numbers (measuring cell death). Images were also taken to document cell and colony growth characteristics.
In the experimental assays, the sensitizing properties of At1g74130 or variants (sensitizing variants) were tested by adding 10 ug protein (At1g74130 or variants in elution buffer) to yeast cells (300-500 cells). To reiterate in all cases, the components were added to cultures and mixed for one hour, where Nys was added and incubated for the last 15 minutes of the treatment. Pre-treatment was designed to permit AmB and At1g74130 proteins to establish and work prior to adding Nys. After the one hour incubation, 500 cells were plated on non-selective YPD agar media and grown for 48 hours at 30′C.
The sub-lethal levels of fungicides to use in these assays were determined using dosage experiments. These assays were conducted on yeast cells without added rhomboid proteins or variants. The dosages of AmB tested ranged from 0 to 5% (v/v). […] Likewise, the Nys level was determined using a range of 0.5 to 2.5%. Yeast cells were treated for one hour with fungicides in a total volume of 400 μl YPD media before plating.
Since both the AmB buffer contained small quantities of detergent (deoxycholate being the main one), an experiment was done in which different amounts (1% and 10%) of deoxycholate were added to yeast cells to ascertain any effects. Adding deoxycholate had little effect on yeast.
This set of yeast assays was conducted in the same manner described above (Example 13) and employed the same controls and combinations. […]

For test [3], the system named is ampicillin resistant E. coli. The experiment in a line: Sensitization of bacteria to ampicillin by exogenous rhomboid protein. In kind it is cell-based, Escherichia coli. How it is done:
Experiments were conducted to assess the ability of At1g74130 proteins or variants to sensitize bacteria to the antibiotic ampicillin, using “super-resistant” E. coli (multi-copy pET20b plasmid-based ampicillin-resistant lab strains). This model is considered the so-called “SuperBug” model, as commonly referred to in the public domain and media.
Control assays were conducted on cells without added At1g74130 or variants (sensitizing variants) to determine the delivery system to use and the appropriate levels of ampicillin to use. Control assays were also conducted to determine if the 5% (v/v) DMSO delivery system exerted any effects. Bacterial cells, usually 800-1000, were mock treated with Luria Broth (LB) media or 5% (v/v) DMSO for 15 minutes prior to exposure to a 30-45 minute exposure to ampicillin (1.25 mg/ml or 1.5 mg/ml). Total volumes of 200 μl were used in these assays. The treated-exposed cells were then plated onto non-selective LB agar plates and allowed to grow overnight to assess the level of cell death or susceptibility to ampicillin. The ampicillin range found useful for these assays was between 1.25 mg/ml to 1.5 mg/ml. This range mirrored the observations reported in an earlier section above with transgenic bacterial cells and ampicillin susceptibility. […]

A further test relates to bacteria. Nature of the test: Sensitization of bacteria to tetracycline by exogenous rhomboid protein. In kind it is cell-based, Escherichia coli. The settings on record: tetracycline 15 ug/ml. As for the experimental part: Experiments were conducted to assess the ability and the utility of At1g74130 protein variants to sensitize bacteria to another antibiotic, tetracycline. In bacteria, tolerance or resistance to tetracycline is facilitated by a mechanism different from the ampicillin resistance assayed in Example 9. Unlike the breakdown of ampicillin outside the bacterial cells by secreted ampicilliase, tetracycline resistance in bacteria is based largely on the continual and effective pumping of tetracycline out of the cell by proteinaceous membrane pumps. To assess the utility of the At1g74130 for sensitizing bacteria to tetracycline, these bacterial assays were conducted in the same manner described in Example 9. The same controls and combinations were used. The final treatment level of tetracycline used in place of the ampicillin treatment was 15 ug/ml.
Experiments were conducted to assess the ability and the utility of a human rhomboid type or variant to sensitize bacteria to tetracycline. These bacterial assays were conducted in the same manner described above for the other rhomboid variants and in Example 9. The same controls and combinations were used. The At1g74130 L was the control for UBAC2 in this set of assays. The previously observed behaviours and responses were not observed for UBAC2 in this setting with the antibiotic tetracycline (FIG. 16).

For `C[C@@H]1[C@H](O)[C@@H](C)/C=C/C=C/C=C/C=C/C=C/C=C/C=C/[C@H](O[C@@H]2O[C@H](C)[C@@H](O)[C@H](N)[C@@H]2O)C[C@@H]2O[C@](O)(C[C@@H](O)C[C@@H](O)[C@H](O)CC[C@@H](O)C[C@@H](O)CC(=O)O[C@H]1C)C[C@H](O)[C@H]2C(=O)O` [AmB, Amphotericin B, reference compound], in the test on yeast [1], the “surviving yeast colonies in dosage experiment” value is reported as “no significant differences”. The “yeast cell survival, fungicide alone” value in the test with yeast [2] was “small reduction in yeast cell survival”.
For `C[C@@H]1[C@H](O)[C@@H](C)/C=C/C=C/CC/C=C/C=C/C=C/C=C/C(O[C@H]2O[C@H](C)[C@@H](O)[C@H](N)[C@@H]2O)CC2O[C@](O)(CC(O)C(O)CCC(O)CC(O)CC(O)CC(=O)O[C@H]1C)CC(O)C2C(=O)O` (stereo partly drawn) [Nys, Nystatin, reference compound], in the test on yeast [2], the “yeast cell survival, fungicide alone” value was “small reduction in yeast cell survival”.
In the case of `CC1(C)S[C@@H]2[C@H](NC(=O)[C@H](N)c3ccccc3)C(=O)N2[C@H]1C(=O)O` [ampicillin, reference compound], the “effect on bacteria when provided individually” value in test [3] (effective co-delivery concentration, without protein) is on record as “no effects”.
Take deoxycholate: the effect on yeast result with yeast [2] (1% and 10% added to yeast cells) is on record as “little effect”.

B1: UBAC2: human UBAC2 isoform 1, fusion between a rhomboid pseudoprotease sequence and ubiquitin-associating domains (protein, listed as Homo sapiens)
chain: MQYFFGITAASNLPSGFLAPVFALFVPFYCSIPRVQVAQILGPLSITNKTLIYILGLQLFTSGSYIWIVAISGLMSGLCYDSKMFQVHQVLCIPSWMAKFFSWTLEPIFSSSEPTSEARIGMGATLDIQRQQRMELLDRQLMFSQFAQGRRQRQQQGGMINWNRLFPPLRQRQNVNYQGGRQSEPAAPPLEVSEEQVARLMEMGFSRGDALEALRASNNDLNVATNFLLQH
As for B1, the “sensitization of yeast to antifungals AmB and Nys” value in the test with yeast [2] is listed as “increased the sensitivity”. The “sensitization of bacteria to tetracycline” value in the test on bacteria is recorded as “not observed”.

B2: At1g25290 L: L-form Arabidopsis At1g25290 rhomboid protease, contains the RVL cyclin-binding domain (protein, listed as Arabidopsis thaliana)
chain: MVSVSLSHHNLWPPESGSTAFRGFATAASVHACHHVSRHLRLDFHLRSSLKKLQHFSDDARMKFARYQRVFVFNGANFLKSRVDIRLSQSSPFVCFFNGGESRLNPRGGEEGSSNPETSKRNTVNGRRWTNVLLAINVIMYIAQIASDGKVLTWGAKINSLIERGQLWRLATASVLHANPMHLMINCYSLNSIGPTAESLGGPKRFLAVYLTSAVARVLGSAMSYWFNKAPSVGASGAIFGLVGSVAVFVIRHKQMVRGGNEDLMQIAQIIALNMAMGLMSRR
Consider B2, for which, in the test on yeast [2], the “sensitization of yeast to antifungals AmB and Nys” value was “no activity”. Further, the “sensitization of bacteria to ampicillin” value in test [3] (exogenous protein, same manner as Example 9) was “no activity”.
